Values joined by “and” are separate entries in the source; they are usually repeats but may differ in a detail not shown here. Equal values may be shown once.
Assays:
[1] = test system: Plasmodium falciparum blood stage parasites; assay: Dose-response curves (parasitemia by Hoechst flow cytometry); assay type: cell-based
Protocol: Synchronous ring-stage or late-stage iRBC at <0.5% parasitemia were brought up to 4% hematocrit in complete culture medium and transferred to a 24-well tissue culture plate in 1 mL aliquots. […] 25 μL were removed from each well at 0, 24, 48, and 72 hours, stained with 100 μL 2 μg/mL Hoechst 33342 for 10 minutes at 37°C, and analyzed by flow cytometry as described above. IC50 values were determined according to parasitemia at 24 hours post-treatment. Parasitemia was defined as the percent of Hoechst-positive RBCs as measured by flow cytometry.

[2] = test system: Plasmodium falciparum iRBC; assay: Parasite viability assay (parasitemia by flow cytometry, Giemsa blood smears); assay type: cell-based; settings: for morphology of treated iRBC by blood smear: STAD-2 1 μM, H89 30 μM, light microscopy at 48 hours post-treatment, versus DMSO
Protocol: 25 μL were removed from each well every 24 hours post-treatment, and samples were stained with Hoechst 33342 and analyzed by flow cytometry. Blood smears were made every 24 hours, fixed with methanol, and stained with Giemsa for analysis by light microscopy. Images were acquired using a Nikon Eclipse E400 microscope fitted with a Nikon Digital Sight DS-5M-L1 camera (Nikon Instruments Inc.).

HsPKA-RII = assay: Immunofluorescence assay, colocalization with PKA regulatory subunit; assay type: cell-based, H. sapiens; settings: late-stage iRBC, 1 μM FITC-conjugated peptide, 2 hours, anti-HsPKA RII antibody
Protocol: (§1) A culture of primarily late-stage iRBC was incubated with STAD-2 or DMSO as described above. Following incubation, 50 μL of cell mixture was removed and washed twice with 1 mL 1X PBS. Cells were then resuspended in 200 μL 4% paraformaldehyde/0.0075% glutaraldehyde and transferred to a CC2 glass chamber slide (Nalge Nunc International). Cells were fixed for 30 minutes at room temperature and gently washed twice with 300 μL 1X PBS. Fixed cells were subsequently permeabilized with 0.1% Triton X-100/PBS for 10 minutes and washed. Cells were then treated with […] sodium borohydride/PBS for 10 minutes to reduce any free aldehyde groups, washed with 1X PBS, and blocked for 1 hour at room temperature with 3% BSA/PBS. Following blocking, cells were brought up in 200 μL primary antibody and left shaking at 4°C overnight. The following morning, cells were washed three times, for 10 minutes each, to remove excess primary antibody and brought up in 200 μL secondary antibody for 1 hour at room temperature. After washing, cells were counterstained with 200 μL 0.5 μg/mL Hoechst 33342 for 3 minutes at room temperature and washed a final time before removing slide chambers, mounting a coverslip with Fluoro-Gel, and sealing. Rat anti-PfPKA-R was generously donated by Gordon Langsley (Institut Cochin) and diluted 1:300 in 3% BSA/PBS. Goat anti-HsPKA-RII (Abcam) was diluted to 10 μg/mL in 3% BSA/PBS. […]

PfPKA-R = assay: as above; assay type: cell-based, Plasmodium falciparum; settings: late-stage iRBC, 1 μM FITC-conjugated peptide, 2 hours, anti-PfPKA R antibody
Protocol: as §1

[3] = molecular target: T1, cytoadherence linked asexual protein 3.1, or CLAG3 (Plasmodium falciparum, UniProt O77310); assay: Immunoprecipitation/mass spectrometry with biotin-conjugated peptide; assay type: binding; settings: 3D7 parasite supernatant, 16 hours at 4°C, streptavidin beads, MS-MS (S2 Table)
T1 construct: 4 X 10^8 3D7 parasites were lysed with cold 0.04% saponin in PBS; endogenous in cells; host or cells: P. falciparum 3D7 parasites (parasite supernatant of lysate)
T1 sequence (O77310 25-1417): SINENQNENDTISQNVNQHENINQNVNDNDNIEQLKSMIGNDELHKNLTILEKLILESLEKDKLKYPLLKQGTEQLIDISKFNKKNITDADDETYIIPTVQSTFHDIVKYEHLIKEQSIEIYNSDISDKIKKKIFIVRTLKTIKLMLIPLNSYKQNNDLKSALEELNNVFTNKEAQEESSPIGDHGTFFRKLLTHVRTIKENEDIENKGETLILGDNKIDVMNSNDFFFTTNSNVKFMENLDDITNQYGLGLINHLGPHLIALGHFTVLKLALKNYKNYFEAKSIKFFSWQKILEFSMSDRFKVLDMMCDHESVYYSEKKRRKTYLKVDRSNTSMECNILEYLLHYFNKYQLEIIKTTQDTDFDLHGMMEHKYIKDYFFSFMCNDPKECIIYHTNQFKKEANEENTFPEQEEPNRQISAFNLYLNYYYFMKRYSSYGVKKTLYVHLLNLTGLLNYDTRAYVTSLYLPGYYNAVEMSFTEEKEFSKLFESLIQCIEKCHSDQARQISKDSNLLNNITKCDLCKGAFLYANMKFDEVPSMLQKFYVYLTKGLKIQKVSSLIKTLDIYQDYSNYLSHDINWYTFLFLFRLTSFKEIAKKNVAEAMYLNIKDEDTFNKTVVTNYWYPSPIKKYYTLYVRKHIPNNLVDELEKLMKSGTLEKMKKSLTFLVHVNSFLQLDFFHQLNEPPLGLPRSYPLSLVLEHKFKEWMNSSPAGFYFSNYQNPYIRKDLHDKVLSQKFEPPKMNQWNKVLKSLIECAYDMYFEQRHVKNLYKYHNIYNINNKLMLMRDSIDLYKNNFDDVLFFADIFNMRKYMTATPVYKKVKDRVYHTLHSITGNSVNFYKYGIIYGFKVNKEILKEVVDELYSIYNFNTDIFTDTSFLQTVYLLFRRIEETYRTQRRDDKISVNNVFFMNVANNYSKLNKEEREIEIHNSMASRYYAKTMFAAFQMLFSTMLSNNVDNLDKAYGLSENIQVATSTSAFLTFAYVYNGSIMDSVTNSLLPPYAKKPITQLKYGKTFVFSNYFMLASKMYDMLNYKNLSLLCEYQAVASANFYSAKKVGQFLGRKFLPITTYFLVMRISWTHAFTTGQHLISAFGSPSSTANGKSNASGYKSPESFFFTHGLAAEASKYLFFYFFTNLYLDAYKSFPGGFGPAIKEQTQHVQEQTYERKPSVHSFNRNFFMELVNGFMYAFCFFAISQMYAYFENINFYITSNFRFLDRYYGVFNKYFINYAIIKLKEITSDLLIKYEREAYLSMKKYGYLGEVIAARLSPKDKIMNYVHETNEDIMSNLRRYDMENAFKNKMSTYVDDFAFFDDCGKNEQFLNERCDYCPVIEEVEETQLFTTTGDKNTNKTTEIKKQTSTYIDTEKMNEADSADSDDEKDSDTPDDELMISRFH
Protocol: 4 X 10^8 3D7 parasites were lysed with cold 0.04% saponin in PBS for 10 minutes. The supernatant was, subsequently, separated from the pellet by centrifugation at 4000 rcf for 10 minutes at 4°C. This supernatant consisted of the RBC cytoplasm and parasite exported proteins (termed host supernatant). The pellet consisted of parasite cells; these were further lysed with […]. The soluble fraction (termed parasite supernatant) of the parasite cells was separated from the insoluble fraction by centrifuging the parasite lysate at 4000 rcf for 10 minutes at 4°C. The host supernatant and the parasite supernatant were each incubated with biotin-conjugated STAD-2 or STAD-2 scramble for 16 hours at 4°C. Peptide-protein complexes were precipitated using streptavidin-coupled Dynabeads (Life Technologies). Dynabeads were subsequently washed four times with 1X PBS, and the precipitated peptide-protein complexes were solubilized in SDS-PAGE sample buffer. Proteins were, then, fractionated on 10% SDS-PAGE, excised, and identified by MS-MS (Proteomics and Mass Spectrometry Core Facility, University of Georgia).
Sequences identified by MS-MS were searched against the NCBI non-redundant protein databases for Plasmodium falciparum (NCBI taxonomy #5833) and human (#9606)/Plasmodium (#5820) and analyzed by Mascot. Results from both database searches were cross-referenced and compiled. […]

late-stage iRBC [4] = assay: Hemolysis (oxyhemoglobin absorbance at 415 nm); assay type: cell-based, Plasmodium falciparum; settings: late-stage iRBC diluted in uRBC, 0 to 8% parasitemia, 1 μM, 6 hours, versus DMSO, n = 4
Protocol: Synchronous late-stage iRBC were mixed with uRBC in order to achieve a series of samples with stepwise decreasing parasitemia. […] The plate was incubated at 37°C under standard gas conditions for 6 hours. Following incubation, all samples were transferred to Eppendorf tubes and centrifuged at 700 rcf for 5 minutes to pellet cells. 100 μL of supernatant was removed from each tube and transferred to a 96-well, flat-bottom tissue culture plate. Oxyhemoglobin absorbance was measured at 415 nm using a SpectraMax Plus microplate spectrophotometer with SoftMax Pro 5.4 software (Molecular Devices, LLC).

late-stage iRBC [5] = test system: late-stage iRBC
Protocol: Late-stage cultures were brought up to 4% hematocrit in complete culture medium and transferred to a 48-well tissue culture plate at 250 μL per well. Plates were spun at 330 rcf for 5 minutes, the medium was aspirated, and cultures were resuspended in either 250 μL complete culture medium or 200 μM furosemide in complete culture medium for 10 minutes at 37°C. Plates were again spun at 330 rcf, aspirated, and resuspended in 250 μL 1 μM STAD-2, 5% D-Sorbitol, 200 μM furosemide, 130 mM glycerol, 6 μM AgNO3, or a combination of the aforementioned for 10 minutes or 2 hours. Following incubation, 25 μL were removed, stained, and analyzed by flow cytometry as described above. Ten-minute time points served as controls for 5% D-Sorbitol and furosemide activities while effects on STAD-2 uptake were determined using 2-hour time points.

[6] = test system: uninfected red blood cells (uRBC); settings: 1 μM FITC-conjugated peptide, 6 hours, 37°C, 4% hematocrit, Hoechst/FITC flow cytometry
Protocol: (§2) Synchronous ring-stage or late-stage infected red blood cells (iRBC) and uninfected red blood cells (uRBC) were brought up to 4% hematocrit in complete culture medium. FITC-conjugated peptides were added to a final concentration of 1 μM, and cultures were incubated for 6 hours at 37°C under standard gas conditions. Following incubation, 25 μL cell mixture was removed and treated with 100 μL 2 μg/mL Hoechst 33342 for 10 minutes at 37°C. Cells were subsequently washed once in 1 mL 1X PBS, resuspended in 300 μL 1X PBS, and analyzed for Hoechst and FITC staining on a Beckman Coulter CyAn flow cytometer. 500,000 events were collected at a rate of 15,000–20,000 events per second. Data was analyzed using FlowJo X single cell analysis software (FlowJo LLC).

[7] = test system: Plasmodium falciparum infected red blood cells (iRBC); assay: STAD-2 permeability: uptake of FITC-conjugated peptides by flow cytometry; assay type: cell-based
Protocol: as §2

**Q.** How did the IC50 ([1]; late-stage CS2 parasites, serial dilutions 100-0.78 μM, 24 hours, Hoechst flow cytometry, n = 2 (S5 Fig), read-out: H89 in vitro IC50) turn out when `O=S(=O)(NCCNC/C=C/c1ccc(Br)cc1)c1cccc2cnccc12` [H89] was run?
**A.** 30 µM and ~30 µM

**Q.** What about the “morphology of treated iRBC by blood smear” value ([2]; late-stage iRBC) of the same compound?
**A.** clear morphological changes including the notable absence of a digestive vacuole

**Q.** What does the source list for `CC(C)C[C@H](NC(=O)[C@H](C)NC(=O)[C@]1(C)CCCC=CCCC[C@](C)(NC(=O)[C@H](CO)NC(=O)[C@@H](NC(=O)[C@H](CC(C)C)NC(=O)[C@H](Cc2ccccc2)NC(=O)[C@H](CCCCN)NC(=O)[C@H](C)NC(=O)[C@H](CC(C)C)NC(=O)[C@H](CCCCN)NC(=O)[C@H](CCCCN)NC(=O)CCNC(=S)Nc2ccc3c(c2)C(=O)OC32c3ccc(O)cc3Oc3cc(O)ccc32)C(C)C)C(=O)N[C@@H](C)C(=O)N[C@@H](CC(C)C)C(=O)N[C@@H](CCCCN)C(=O)N1)C(=O)N[C@@H](CCCCN)C(N)=O` [STAD-2]?
**A.** colocalization with HsPKA-RII (HsPKA-RII): did not definitively colocalize; colocalization with PfPKA-R (PfPKA-R): did not definitively colocalize; association with CLAG3 by IP/MS [3]: showed association; iRBC lysis (oxyhemoglobin A415 in medium) (late-stage iRBC [4]): significantly greater than controls; effect on parasitemia relative to DMSO-treated controls, dose-response ([1]; ring- and late-stage iRBC, 0, 0.5, 1, 2, 5 μM, 24 hours post-treatment, n = 3): concentration-dependent decrease in parasitemia; STAD-2 uptake, co-incubation with AgNO3 (late-stage iRBC [5]; 1 μM STAD-2 + 6 μM AgNO3 (AQP1 inhibitor), 2 hours, flow cytometry, n = 2): no apparent change in STAD-2 uptake; STAD-2 uptake, co-treatment with furosemide alone (late-stage iRBC [5]; 1 μM STAD-2 + 200 μM furosemide (PSAC inhibitor), 2 hours, pre-treatment with medium, flow cytometry, n = 3): no discernible effect on STAD-2 uptake; STAD-2 uptake, co-incubation with glycerol (late-stage iRBC [5]; 1 μM STAD-2 + 130 mM glycerol (AQP3 solute), 2 hours, flow cytometry, n = 2): no apparent change in STAD-2 uptake; STAD-2 uptake, co-incubation with D-Sorbitol (late-stage iRBC [5]; 1 μM STAD-2 + 5% D-Sorbitol (PSAC solute), 2 hours, flow cytometry, n = 2): slight reduction of STAD-2 uptake; STAD-2 uptake, furosemide pre-incubation then co-treatment (late-stage iRBC [5]; 200 μM furosemide 10 minutes pre-incubation, then 1 μM STAD-2 + 200 μM furosemide 2 hours, p = 0.0557, n = 3): consistent but statistically insignificant decrease; permeability in uRBC [6]: only a nominal amount; uptake by synchronous ring-stage and late-stage iRBC ([7]; 1 μM FITC-conjugated peptide, 6 hours, flow cytometry, 2way ANOVA p<0.001, n = 3-6): significantly increased uptake; permeability in iRBC ([7]; CS2 iRBC, 1 μM FITC-conjugated peptide, 6 hours, 37°C, 4% hematocrit, Hoechst/FITC flow cytometry): significant permeability; permeability to iRBC among stapled peptides (median fluorescence intensity) ([7]; iRBC, 1 μM stapled FITC-conjugated peptides, 6 hours, flow cytometry, n = 2-6 (Fig 7)): clearly permeable; permeability across parasite strains ([7]; late-stage CS2, Dd2, 3D7, Hb3 iRBC, 1 μM FITC-conjugated peptide, 2 hours, flow cytometry, n = 2 (S1 Fig)): comparable levels of permeability; time to near-maximum levels of uptake ([7]; late-stage iRBC, 1 μM FITC-conjugated peptide for 1, 2, 3 or 6 hours, flow cytometry, n = 3 (S2 Fig)): ≤ 3 h; viability of P. falciparum strains ([2]; late-stage CS2, 3D7, Dd2, Hb3, 1 μM FITC-conjugated peptide, parasitemia at 24, 48, 72 hours, n = 3 (S3 Fig)): reduced viability in CS2, Dd2, and Hb3 strains; parasitemia 6 hours post-treatment ([2]; late-stage iRBC, 1 μM FITC-conjugated peptide, 6 hours, flow cytometry, n = 7 (S4 Fig)): Reduction in parasitemia was evident; morphology of treated iRBC by blood smear ([2]; late-stage iRBC): did not differ morphologically from DMSO controls; parasitemia relative to DMSO controls over 72 hours ([2]; synchronous ring- and late-stage iRBC, 1 μM, flow cytometry every 24 hours for 72 hours, significant by 48 hours (p<0.001), n = 3): significantly decreased parasitemias
